Source: US20230056205A1, “SUBSTITUTED 4,6-DIHYDROSPIRO[[1,2,3]TRIAZOLO[4,5-B]PYRIDINE-7,3'-INDOLINE]-2',5(3H)-DIONE ANALOGUES” (The Board of Regents of The University of Texas System, priority 2019, published 2023)
Read-outs that look alike come from different tables or passages of the source.

Experiments:
DENV-1 replicon = assay: Luciferase reporter replicon-based screening, DENV-1; type: cell-based, DENV-1 (strain WestPac); conditions: Dengue virus, DENV1, Huh-7, 48 h, read-out: EC50 DENV-1
Experimental: (§1) Luciferase Reporter Replicon-Based Screening. Huh7 cells containing a luciferase reporter replicon of DENV-1 (strain WestPac), DENV-2 (New Guinea C strain, NGC), DENV-3 (strain D3MY05-34640) and DENV-4 (strain D4MY01-22713) were used in this study. The replicon cells containing the Renilla luciferase and neomycin-resistance genes were generated using a similar strategy as described previously.^55 Briefly, Huh7 DENV-1 to -4 replicon cells were seeded at a density of 10k per well in a 96-well microplate. After incubation at 37° C. with 5% CO2 overnight, the cells were treated with 2-fold serial dilutions of compounds. Experiments were performed in duplicates. After 48 h of incubation, luciferase activities were measured using the EnduRen live-cell substrate (Promega) by following the manufacturer’s instructions. The dose-dependent curve was plotted and EC50 values were calculated using four parameter logistic regression in GraphPad software Prism 8.0.

DENV-2 replicon = assay: Luciferase reporter replicon-based screening, DENV-2; type: cell-based, DENV-2 (New Guinea C strain, NGC)
Experimental: as §1

DENV-3 replicon = assay: Luciferase reporter replicon-based screening, DENV-3; type: cell-based, DENV-3 (strain D3MY05-34640)
Experimental: as §1

DENV-4 replicon = assay: Luciferase reporter replicon-based screening, DENV-4; type: cell-based, DENV-4 (strain D4MY01-22713); conditions: Dengue virus, DENV4, Huh-7, 48 h, read-out: EC50 DENV-4
Experimental: as §1

[1] = Cytotoxicity assay (CellTiter-Glo); type: cell-based; conditions: human, Huh7 cells stably expressing DENV-2 replicon
Experimental: Cytotoxicity Assay. Huh7 cells or Huh7 replicon cells were seeded in a 96-well plate. After incubation at 37° C. with 5% CO2 overnight, the cells were treated with 2-fold serial dilutions of compounds. Experiments were performed in duplicates. After 48 h of incubation, cell viability was measured by adding the CellTiter-Glo reagent (Promega) to each well. The cell viability in 0.45% DMSO-treatment groups was treated at 100%. The cell viability in compound-treated wells was normalized to that of DMSO-treated wells. CC50 values were calculated using four parameter logistic regression in GraphPad software Prism 8.0.

[2] = Dengue virus, DENV2, Huh-7, 48 h, read-out: EC50 DENV-2, Huh7 cells stably expressing DENV-2 replicon, 48 h
[3] = Dengue virus, DENV3, Huh-7, 48 h, read-out: EC50 DENV-3, Huh7 cells stably expressing DENV-3 replicon, 48 h
[4] = read-out: EC50 DENV-2, Huh7 cells stably expressing DENV-2 replicon, 48 h

| Structure (SMILES) | EC50 (DENV-1 replicon) [µM] | EC50 (DENV-2 replicon; [2]) [µM] | EC50 (DENV-3 replicon; [3]) [µM] | EC50 (DENV-4 replicon) [µM] | CC50 at 48 h [1] [µM] | EC50 (DENV-2 replicon; [4]) [µM] | EC50 (DENV-3 replicon; read-out: EC50 DENV-3, Huh7 cells stably expressing DENV-3 replicon, 48 h) [µM] |
| --- | --- | --- | --- | --- | --- | --- | --- |
| C[C@@H](c1ccc(Cl)cc1)n1nnc2c1NC(=O)C[C@]21C(=O)N(Cc2ccncc2)c2ccc(Cl)cc21 [Compound 35, (R)-5'-Chloro-3-((S)-1-(4-chlorophenyl)ethyl)-1'-(pyridin-4-ylmethyl)-4,6-dihydrospiro[[1,2,3]triazolo[4,5-b]pyridine-7,3'-indoline]-2',5(3H)-dione] | > 5 | 0.072 | 0.025 | > 5 | > 10 |  |  |
| C[C@@H](c1ccc(Cl)cc1)n1nnc2c1NC(=O)C[C@]21C(=O)N(CCCN2CCCCC2)c2ccc(Cl)cc21 [Compound 64, (R)-5'-Chloro-3-((S)-1-(4-chlorophenyl)ethyl)-1'-(3-(piperidin-1-yl)propyl)-4,6-dihydrospiro[[1,2,3]triazolo[4,5-b]pyridine-7,3'-indoline]-2',5(3H)-dione] | > 5 | 0.13 | 0.012 | > 5 | > 10 |  |  |
| C#CCN1C(=O)[C@]2(CC(=O)Nc3c2nnn3[C@@H](C)c2ccc(Cl)cc2)c2cc(Cl)ccc21 [Compound 19, (R)-5ʹ-Chloro-3-((S)-1-(4-chlorophenyl)ethyl)-1ʹ-(prop-2-yn-1-yl)-4,6-dihydrospiro [[1,2,3]triazolo[4,5-b]pyridine-7,3ʹ-indoline]-2ʹ,5(3H)-dione] | > 5 | 0.069 | 0.003 | > 5 | > 10 |  |  |
| COc1cc(CN2C(=O)[C@]3(CC(=O)Nc4c3nnn4[C@@H](C)c3ccc(Cl)cc3)c3cc(Cl)ccc32)cc(OC)c1 [Compound 30, (R)-5'-Chloro-3-((S)-1-(4-chlorophenyl)ethyl)-1'-(3,5-dimethoxybenzyl)-4,6-dihydrospiro[[1,2,3]triazolo[4,5-b]pyridine-7,3'-indoline]-2',5(3H)-dione] | 3.4 | 3.1 | 0.79 | 7.4 | > 10 |  |  |
| C[C@@H](c1ccc(Cl)cc1)n1nnc2c1NC(=O)C[C@]21C(=O)N(CCCCCCBr)c2ccc(Cl)cc21 [Compound 49, (R)-1'-(6-Bromohexyl)-5'-chloro-3-((S)-1-(4-chlorophenyl)ethyl)-4,6-dihydrospiro[[1,2,3]triazolo[4,5-b]pyridine-7,3'-indoline]-2ʹ,5(3H)-dione] |  | 3 |  |  | > 10 |  |  |
| CC(C)N1C(=O)C[C@]2(C(=O)Nc3ccc(Cl)cc32)c2nnn([C@@H](C)c3ccc(Cl)cc3)c21 [Compound 21, (R)-5'-Chloro-3-((S)-1-(4-chlorophenyl)ethyl)-4-isopropyl-4,6-dihydrospiro[[1,2,3]triazolo[4,5-b]pyridine-7,3'-indoline]-2',5(3H)-dione] | 2.1 | 0.86 | 0.31 | 4.4 | > 10 |  |  |
| COC(=O)CN1C(=O)C[C@]2(C(=O)Nc3ccc(Cl)cc32)c2nnn([C@@H](C)c3ccc(Cl)cc3)c21 [Compound 44, Methyl 2-((R)-5'-chloro-3-((S)-1-(4-chlorophenyl)ethyl)-2',5-dioxo-5,6-dihydrospiro[[1,2,3]triazolo[4,5-b]pyridine-7,3'-indolin]-4(3H)-yl)acetate] | > 10 | > 10 | 2.7 | > 10 | > 10 |  |  |
| C[C@@H](c1ccc(Cl)cc1)n1nnc2c1NC(=O)C[C@]21C(=O)N(CCCBr)c2ccc(Cl)cc21 [Compound 47, (R)-1'-(3-Bromopropyl)-5'-chloro-3-((S)-1-(4-chlorophenyl)ethyl)-4,6-dihydrospiro[[1,2,3]triazolo[4,5-b]pyridine-7,3'-indoline]-2',5(3H)-dione] | 2.4 | 0.25 | 0.076 | 3.2 | > 10 |  |  |
| C[C@@H](c1ccc(Cl)cc1)n1nnc2c1NC(=O)C[C@]21C(=O)N(CC(=O)O)c2ccc(Cl)cc21 [Compound 45, 2-((R)-5'-Chloro-3-((S)-1-(4-chlorophenyl)ethyl)-2',5-dioxo-3,4,5,6-tetrahydrospiro[[1,2,3]triazolo[4,5-b]pyridine-7,3'-indolin]-1ʹ-yl)acetic acid] |  | 2.4 |  |  | > 10 |  |  |
| CC#CCN1C(=O)[C@]2(CC(=O)Nc3c2nnn3[C@@H](C)c2ccc(Cl)cc2)c2cc(Cl)ccc21 [Compound 20, (R)-1'-(But-2-yn-1-yl)-5'-chloro-3-((S)-1-(4-chlorophenyl)ethyl)-4,6-dihydrospiro[[1,2,3]triazolo[4,5-b]pyridine-7,3'-indoline]-2',5(3H)-dione] | > 5 | 0.063 | 0.02 | > 5 | > 10 |  |  |
| C[C@@H](c1ccc(Cl)cc1)n1nnc2c1NC(=O)C[C@]21C(=O)N(Cc2ccc(Cl)cc2)c2ccc(Cl)cc21 [Compound 27, (R)-5'-Chloro-1'-(4-chlorobenzyl)-3-((S)-1-(4-chlorophenyl)ethyl)-4,6-dihydrospiro[[1,2,3]triazolo[4,5-b]pyridine-7,3'-indoline]-2',5(3H)-dione] | 2.2 | 3.3 | 0.2 | 6.5 | > 10 |  |  |
| C[C@@H](c1ccc(Cl)cc1)n1nnc2c1NC(=O)C[C@]21C(=O)N(CCCCCl)c2ccc(Cl)cc21 [Compound 48, (R)-5'-Chloro-1'-(4-chlorobutyl)-3-((S)-1-(4-chlorophenyl)ethyl)-4,6-dihydrospiro[[1,2,3]triazolo[4,5-b]pyridine-7,3'-indoline]-2',5(3H)-dione] | > 5 | 0.037 to 0.29 |  | > 5 | > 10 | 0.073 |  |
| C[C@@H](c1ccc(Cl)cc1)n1nnc2c1NC(=O)C[C@]21C(=O)N(CCCCCCCCBr)c2ccc(Cl)cc21 [Compound 50, (R)-1'-(8-bromooctyl)-5'-chloro-3-((S)-1-(4-chlorophenyl)ethyl)-4,6-dihydrospiro[[1,2,3]triazolo[4,5-b]pyridine-7,3'-indoline]-2',5(3H)-dione] |  | > 5 |  |  | > 10 |  |  |
| C[C@@H](c1ccc(Cl)cc1)n1nnc2c1NC(=O)C[C@]21C(=O)N(Cc2cccc(F)c2)c2ccc(Cl)cc21 [Compound 26, (R)-5'-Chloro-3-((S)-1-(4-chlorophenyl)ethyl)-1'-(3-fluorobenzyl)-4,6-dihydrospiro[[1,2,3]triazolo[4,5-b]pyridine-7,3'-indoline]-2',5(3H)-dione] | 10 |  |  | > 5 | > 10 |  |  |
| COCOCCN1C(=O)[C@]2(CC(=O)Nc3c2nnn3[C@@H](C)c2ccc(Cl)cc2)c2cc(Cl)ccc21 [Compound 38, (R)-5'-Chloro-3-((S)-1-(4-chlorophenyl)ethyl)-1'-(2-(methoxymethoxy)ethyl)-4,6-dihydrospiro[[1,2,3]triazolo[4,5-b]pyridine-7,3'-indoline]-2',5(3H)-dione] | > 5 |  |  | > 5 | > 10 |  |  |
| COC(=O)CN1C(=O)[C@]2(CC(=O)Nc3c2nnn3[C@@H](C)c2ccc(Cl)cc2)c2cc(Cl)ccc21 [Compound 43, Methyl 2-((R)-5'-chloro-3-((S)-1-(4-chlorophenyl)ethyl)-2',5-dioxo-3,4,5,6-tetrahydrospiro[[1,2,3]triazolo[4,5-b]pyridine-7,3'-indolin]-1'-yl)acetate] | > 5 |  | 0.009 to 0.076 | > 5 | > 10 |  | 0.011 |
| CCOC(CN1C(=O)[C@]2(CC(=O)Nc3c2nnn3[C@@H](C)c2ccc(Cl)cc2)c2cc(Cl)ccc21)OCC [Compound 41, (R)-5'-Chloro-3-((S)-1-(4-chlorophenyl)ethyl)-1'-(2,2-diethoxyethyl)-4,6-dihydrospiro[[1,2,3]triazolo[4,5-b]pyridine-7,3ʹ-indoline]-2',5(3H)-dione] | > 5 |  |  | > 5 | > 10 |  |  |
| C[C@@H](c1ccc(Cl)cc1)n1nnc2c1NC(=O)C[C@]21C(=O)N(Cc2ccc(F)cc2)c2ccc(Cl)cc21 [Compound 25, (R)-5'-Chloro-3-((S)-1-(4-chlorophenyl)ethyl)-1'-(4-fluorobenzyl)-4,6-dihydrospiro[[1,2,3]triazolo[4,5-b]pyridine-7,3'-indoline]-2',5(3H)-dione] | 5 | 0.14 to 0.29 |  | 10 | > 10 | 0.16 |  |
